Measurements as given in ChEMBL document CHEMBL1201862, “PubChem BioAssay data set” (2004).
The source made the active and inactive calls.

How the values were obtained:
[1] = target: Peroxisome proliferator-activated receptor gamma/Nuclear receptor coactivator 2 (Homo sapiens, UniProt P37231); format: functional;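 also: agonist potency for raising coactivator recruitment to the receptor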
[2] = target: Peroxisome proliferator-activated receptor gamma/Nuclear receptor coactivator 1 (Homo sapiens, UniProt P37231); format: functional;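 also: agonist potency as compounds enhance coactivator SRC-1 recruitment to PPARgamma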
[3] = target: Peroxisome proliferator-activated receptor gamma/Nuclear receptor coactivator 3 (Homo sapiens, UniProt P37231); format: functional;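 also: agonist potency for raising coactivator recruitment to the receptor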
Chain of Peroxisome proliferator-activated receptor gamma/Nuclear receptor coactivator 3 (P37231 whole entry): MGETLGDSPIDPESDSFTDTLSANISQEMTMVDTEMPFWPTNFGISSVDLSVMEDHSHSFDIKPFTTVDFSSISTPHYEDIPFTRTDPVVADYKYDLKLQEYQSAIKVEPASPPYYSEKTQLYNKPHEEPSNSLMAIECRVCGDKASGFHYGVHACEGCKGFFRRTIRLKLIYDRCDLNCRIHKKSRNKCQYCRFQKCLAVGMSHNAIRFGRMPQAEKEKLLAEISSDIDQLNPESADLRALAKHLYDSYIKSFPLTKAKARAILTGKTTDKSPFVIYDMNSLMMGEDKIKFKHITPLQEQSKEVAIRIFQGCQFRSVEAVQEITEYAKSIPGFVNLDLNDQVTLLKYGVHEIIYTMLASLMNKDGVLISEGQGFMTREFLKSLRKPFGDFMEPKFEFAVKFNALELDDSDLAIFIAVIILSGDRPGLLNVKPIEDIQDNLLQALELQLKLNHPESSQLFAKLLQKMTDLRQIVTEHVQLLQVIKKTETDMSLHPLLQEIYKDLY
Chain of Peroxisome proliferator-activated receptor gamma/Nuclear receptor coactivator 3 (Q9Y6Q9 whole entry, further chain): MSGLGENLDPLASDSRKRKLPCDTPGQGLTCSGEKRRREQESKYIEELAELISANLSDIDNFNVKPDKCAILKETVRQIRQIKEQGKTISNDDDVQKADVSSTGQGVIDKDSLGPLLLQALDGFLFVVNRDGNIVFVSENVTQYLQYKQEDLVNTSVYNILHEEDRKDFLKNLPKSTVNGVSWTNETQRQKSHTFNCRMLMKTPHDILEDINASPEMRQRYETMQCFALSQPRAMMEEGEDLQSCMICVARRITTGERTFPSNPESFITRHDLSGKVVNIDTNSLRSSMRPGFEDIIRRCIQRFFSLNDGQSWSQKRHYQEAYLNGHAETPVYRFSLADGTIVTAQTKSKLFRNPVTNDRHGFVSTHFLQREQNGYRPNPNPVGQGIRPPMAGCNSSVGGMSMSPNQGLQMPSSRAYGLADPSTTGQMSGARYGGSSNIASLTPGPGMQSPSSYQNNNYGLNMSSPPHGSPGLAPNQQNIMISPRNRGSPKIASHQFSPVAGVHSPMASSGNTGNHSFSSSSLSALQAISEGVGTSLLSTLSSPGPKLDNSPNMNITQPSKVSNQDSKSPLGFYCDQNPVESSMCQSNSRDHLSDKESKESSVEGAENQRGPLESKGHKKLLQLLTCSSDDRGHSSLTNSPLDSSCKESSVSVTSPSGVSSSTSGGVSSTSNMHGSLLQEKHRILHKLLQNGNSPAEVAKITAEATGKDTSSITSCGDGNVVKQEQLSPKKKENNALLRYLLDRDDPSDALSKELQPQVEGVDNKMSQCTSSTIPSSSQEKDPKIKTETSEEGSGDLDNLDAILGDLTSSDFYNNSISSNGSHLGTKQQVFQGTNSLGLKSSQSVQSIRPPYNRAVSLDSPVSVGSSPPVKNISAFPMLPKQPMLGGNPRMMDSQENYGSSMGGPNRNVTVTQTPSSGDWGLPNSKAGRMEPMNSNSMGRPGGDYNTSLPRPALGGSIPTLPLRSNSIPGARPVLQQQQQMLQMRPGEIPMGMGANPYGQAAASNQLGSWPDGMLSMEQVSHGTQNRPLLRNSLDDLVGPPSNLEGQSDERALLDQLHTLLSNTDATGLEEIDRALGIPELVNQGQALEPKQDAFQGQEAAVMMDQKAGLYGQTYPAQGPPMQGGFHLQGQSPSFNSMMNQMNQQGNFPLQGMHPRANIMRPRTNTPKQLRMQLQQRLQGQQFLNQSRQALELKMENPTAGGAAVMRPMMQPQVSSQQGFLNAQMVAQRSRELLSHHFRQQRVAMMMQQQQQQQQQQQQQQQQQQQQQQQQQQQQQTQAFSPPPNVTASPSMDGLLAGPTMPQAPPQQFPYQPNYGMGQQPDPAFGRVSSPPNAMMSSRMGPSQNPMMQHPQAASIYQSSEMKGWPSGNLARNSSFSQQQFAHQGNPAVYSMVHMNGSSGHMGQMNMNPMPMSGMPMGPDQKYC

Estrogen receptor = target: T1, Estrogen receptor (Homo sapiens, UniProt P03372);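 also: potency for inhibiting coactivator peptide recruitment to the receptor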
T1 sequence (P03372 whole entry): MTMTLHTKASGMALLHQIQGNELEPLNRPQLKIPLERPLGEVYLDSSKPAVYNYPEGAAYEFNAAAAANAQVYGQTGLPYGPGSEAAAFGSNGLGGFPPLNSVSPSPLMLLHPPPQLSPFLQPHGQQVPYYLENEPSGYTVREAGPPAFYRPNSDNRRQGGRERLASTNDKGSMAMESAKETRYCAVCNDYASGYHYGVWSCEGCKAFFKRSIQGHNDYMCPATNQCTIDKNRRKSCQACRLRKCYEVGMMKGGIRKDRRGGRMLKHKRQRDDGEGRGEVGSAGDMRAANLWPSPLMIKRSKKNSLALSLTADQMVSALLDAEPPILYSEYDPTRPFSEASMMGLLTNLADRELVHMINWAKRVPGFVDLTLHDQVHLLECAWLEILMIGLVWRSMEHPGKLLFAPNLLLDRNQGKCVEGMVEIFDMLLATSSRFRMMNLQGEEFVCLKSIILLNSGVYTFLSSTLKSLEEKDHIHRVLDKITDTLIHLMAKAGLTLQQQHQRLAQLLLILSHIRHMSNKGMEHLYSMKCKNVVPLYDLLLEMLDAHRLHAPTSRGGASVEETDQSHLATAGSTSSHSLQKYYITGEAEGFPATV

[4] = A cytotoxicity screen of small molecule inhibitors of the PhoP region in Salmonella typhi identified in the primary screen. [Related pubchem assays: 1850, 1864, 1985 ]; format: functional
Cytochrome P450 2C9 = Cytochrome P450 2C9 (Homo sapiens, UniProt P11712); settings: Potency
Chain of Cytochrome P450 2C9 (P11712 whole entry): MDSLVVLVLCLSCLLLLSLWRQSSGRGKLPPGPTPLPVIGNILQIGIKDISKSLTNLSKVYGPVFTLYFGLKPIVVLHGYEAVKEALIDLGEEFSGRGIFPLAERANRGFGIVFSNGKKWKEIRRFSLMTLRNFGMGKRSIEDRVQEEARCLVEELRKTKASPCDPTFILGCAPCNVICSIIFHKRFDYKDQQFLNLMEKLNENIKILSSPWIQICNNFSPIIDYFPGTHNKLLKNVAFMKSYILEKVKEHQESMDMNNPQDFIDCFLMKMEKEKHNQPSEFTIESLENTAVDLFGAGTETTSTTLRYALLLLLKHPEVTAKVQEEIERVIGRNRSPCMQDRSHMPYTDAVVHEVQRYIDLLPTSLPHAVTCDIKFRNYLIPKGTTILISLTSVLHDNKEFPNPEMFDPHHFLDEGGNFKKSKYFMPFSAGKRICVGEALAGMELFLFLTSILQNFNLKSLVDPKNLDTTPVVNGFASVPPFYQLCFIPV

Cytochrome P450 2D6 = Cytochrome P450 2D6 (Homo sapiens, UniProt P10635); assay: qHTS Assay for Inhibitors and Substrates of Cytochrome P450 2D6. [Related pubchem assays: 410 ]; format: ADME; settings: read-out: Potency
Chain of Cytochrome P450 2D6 (P10635 whole entry): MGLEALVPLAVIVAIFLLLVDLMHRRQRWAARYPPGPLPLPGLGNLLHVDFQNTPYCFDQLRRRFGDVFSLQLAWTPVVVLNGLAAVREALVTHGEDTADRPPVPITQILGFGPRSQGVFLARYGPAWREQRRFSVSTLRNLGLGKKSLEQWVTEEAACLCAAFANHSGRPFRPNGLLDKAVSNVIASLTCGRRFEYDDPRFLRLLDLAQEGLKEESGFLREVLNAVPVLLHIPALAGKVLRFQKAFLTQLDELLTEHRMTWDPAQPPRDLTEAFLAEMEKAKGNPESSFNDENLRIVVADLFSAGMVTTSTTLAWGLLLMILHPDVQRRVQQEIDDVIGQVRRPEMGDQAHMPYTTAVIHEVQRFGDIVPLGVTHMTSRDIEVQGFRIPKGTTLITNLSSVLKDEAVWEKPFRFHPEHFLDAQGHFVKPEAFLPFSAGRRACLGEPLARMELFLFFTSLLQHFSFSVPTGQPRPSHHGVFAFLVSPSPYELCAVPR

Chain of Peroxisome proliferator-activated receptor gamma/Nuclear receptor coactivator 2 (P37231 whole entry): as the sequence (P37231 whole entry) above
Chain of Peroxisome proliferator-activated receptor gamma/Nuclear receptor coactivator 2 (Q15596 whole entry, further chain): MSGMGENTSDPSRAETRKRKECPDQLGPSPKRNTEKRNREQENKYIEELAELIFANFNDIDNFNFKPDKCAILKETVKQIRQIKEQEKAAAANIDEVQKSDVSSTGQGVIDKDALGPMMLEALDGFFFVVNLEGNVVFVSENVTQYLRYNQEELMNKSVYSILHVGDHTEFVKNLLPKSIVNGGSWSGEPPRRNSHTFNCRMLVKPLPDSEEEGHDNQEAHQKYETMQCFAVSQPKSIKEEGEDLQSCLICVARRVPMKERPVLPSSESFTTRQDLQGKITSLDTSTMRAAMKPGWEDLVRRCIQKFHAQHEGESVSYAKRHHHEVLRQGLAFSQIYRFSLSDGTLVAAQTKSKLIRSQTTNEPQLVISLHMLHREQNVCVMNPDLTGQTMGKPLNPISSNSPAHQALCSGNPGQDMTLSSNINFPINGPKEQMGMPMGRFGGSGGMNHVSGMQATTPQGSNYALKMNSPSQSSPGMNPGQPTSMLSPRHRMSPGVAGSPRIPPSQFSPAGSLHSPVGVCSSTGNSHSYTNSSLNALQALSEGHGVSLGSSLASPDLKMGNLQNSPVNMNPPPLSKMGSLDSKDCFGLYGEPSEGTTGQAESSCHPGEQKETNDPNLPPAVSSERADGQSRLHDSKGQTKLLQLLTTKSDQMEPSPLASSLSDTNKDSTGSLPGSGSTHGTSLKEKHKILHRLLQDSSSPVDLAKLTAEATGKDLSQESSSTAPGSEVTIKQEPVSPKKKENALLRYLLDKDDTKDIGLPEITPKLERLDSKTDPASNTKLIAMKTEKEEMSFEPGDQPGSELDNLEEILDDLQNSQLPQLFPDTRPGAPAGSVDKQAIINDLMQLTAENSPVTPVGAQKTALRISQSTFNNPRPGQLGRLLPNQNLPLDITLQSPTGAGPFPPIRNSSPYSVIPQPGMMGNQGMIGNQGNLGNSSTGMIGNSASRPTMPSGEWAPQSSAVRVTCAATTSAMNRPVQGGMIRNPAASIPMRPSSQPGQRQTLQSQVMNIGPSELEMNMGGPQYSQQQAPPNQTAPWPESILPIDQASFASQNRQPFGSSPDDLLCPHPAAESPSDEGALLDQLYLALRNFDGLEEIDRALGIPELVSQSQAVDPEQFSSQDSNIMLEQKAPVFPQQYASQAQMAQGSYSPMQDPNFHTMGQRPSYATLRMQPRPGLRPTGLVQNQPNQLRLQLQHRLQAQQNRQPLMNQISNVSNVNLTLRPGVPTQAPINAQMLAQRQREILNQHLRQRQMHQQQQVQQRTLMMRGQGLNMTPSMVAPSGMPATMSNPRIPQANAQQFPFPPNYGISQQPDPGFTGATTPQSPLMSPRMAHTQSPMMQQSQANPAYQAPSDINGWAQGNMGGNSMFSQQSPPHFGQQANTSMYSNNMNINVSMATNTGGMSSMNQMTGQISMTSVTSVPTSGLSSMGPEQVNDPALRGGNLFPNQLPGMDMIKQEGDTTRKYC

CC(C)(C)c1nnc(NC(=O)CN2C(=O)C3C4C=CC(C4)C3C2=O)s1 (configuration not stated)
EC50 [1]: > 79.4 µM (not active) | EC50 [2]: > 79.4 µM (not active) | EC50 [3]: > 79.4 µM (not active)

COC(=O)Oc1c(Br)c(=O)oc2ccccc12
IC50 (Estrogen receptor): > 50 µM (not active)

O=C(/C=C/c1ccc(Cl)cc1Cl)NCc1ccncc1
EC50 [4]: > 50 µM (active)

CCc1ccc(OCC(=O)NNC(=O)CSc2ncnc3sc(C)c(C)c23)cc1
EC50 [1]: 25.7 µM (not active) | EC50 [2]: 28.8 µM (not active) | EC50 [3]: 33.8 µM (not active)

CC(C)C[C@@H](CC(=O)N[C@@H](CCCN)CC(=O)N[C@@H]1CCNC[C@H]1C(=O)N[C@H](CC(=O)N[C@@H](CCC(=O)O)CC(=O)O)CC(C)C)NC(=O)[C@@H]1CCCC[C@H]1N
AC50 (Cytochrome P450 2C9): 12.6 µM (inconclusive)

CC12C=C(/C=C/C=C/c3ccccc3)C(C)(C1)C(/C=C/c1ccccc1)CC2=O (configuration not stated)
AC50 (Cytochrome P450 2D6): 3.16 µM (inconclusive)

C/C(N)=C(/C#N)C(=O)COC(=O)c1cc2c(s1)CCCC2
IC50 (cells): 21.3 µM (active)

O=C(N/N=C/C1CC=CCC1)c1cc(Br)ccc1O (configuration not stated)
EC50 [4]: > 50 µM (active)
